Experimental data from ChEMBL document CHEMBL2385072, “Development of oleanane-type triterpenes as a new class of HCV entry inhibitors” (J Med Chem, 2013).

Legend:
Conditions in all cases: HEK-293T
[1] = test system: Hepatitis C virus; experiment: Antiviral activity against pseudo HCV infected in human 293T cells assessed as inhibition of HCV pseudo particles entry at 5 uM after 72 hrs by luciferase reporter gene assay; format: functional, Hepacivirus hominis
[2] = test system: Hepatitis C virus; experiment: Antiviral activity against pseudo HCV infected in human 293T cells assessed as inhibition of HCV pseudo particles entry at 1 uM after 72 hrs by luciferase reporter gene assay; format: functional, Hepacivirus hominis
[3] = test system: Vesicular stomatitis virus; experiment: Antiviral activity against pseudo VSV infected in human 293T cells assessed as inhibition of vesicular stromatis G protein pseudo particles entry at 5 uM after 72 hrs by luciferase reporter gene assay; format: functional
[4] = test system: Vesicular stomatitis virus; experiment: Antiviral activity against pseudo VSV infected in human 293T cells assessed as inhibition of vesicular stromatis G protein pseudo particles entry at 1 uM after 72 hrs by luciferase reporter gene assay; format: functional

SMILES | inhibition at 5 µM [1] [%] | inhibition at 1 µM [2] [%] | inhibition at 5 µM [3] [%] | inhibition at 1 µM [4] [%]
CC(=O)O[C@@H]1[C@H](OC(C)=O)[C@H](n2cc(CNC(=O)[C@]34CCC(C)(C)C[C@H]3C3=CC[C@@H]5[C@@]6(C)CC[C@H](O)C(C)(C)[C@@H]6CC[C@@]5(C)[C@]3(C)C[C@H]4O)nn2)O[C@H](C)[C@H]1OC(C)=O | 71.6 | 17 | -10.7 | 32.6
CC1(C)CC[C@]2(C(=O)O[C@@H]3O[C@H](CO)[C@@H](O[C@H]4O[C@H](CO)[C@@H](O)[C@H](O)[C@H]4O)[C@H](O)[C@H]3O)[C@H](O)C[C@]3(C)C(=CC[C@@H]4[C@@]5(C)CC[C@H](O)C(C)(C)[C@@H]5CC[C@]43C)[C@@H]2C1 | 43.7 | 36.4 | 21.9 | 21.6
COC(=O)[C@]12CCC(C)(C)C[C@H]1C1=CC[C@@H]3[C@@]4(C)CC[C@H](O[Si](C)(C)C(C)(C)C)C(C)(C)[C@@H]4CC[C@@]3(C)[C@]1(C)CC2=O | -3.8 | 11.5 | 40.2 | 45.3
CC(=O)O[C@@H]1[C@@H](OC(C)=O)[C@H](OC(=O)[C@]23CCC(C)(C)C[C@H]2C2=CC[C@@H]4[C@@]5(C)CC[C@H](O)C(C)(C)[C@@H]5CC[C@@]4(C)[C@]2(C)C[C@H]3O)OC[C@H]1OC(C)=O | 70.7 | 17.5 | 21.7 | 20.1
COC(=O)[C@@]12C=C[C@]3(C)C(=CC[C@@H]4[C@@]5(C)CC=CC(C)(C)[C@@H]5CC[C@]43C)[C@@H]1CC(C)(C)CC2 | 14 | 35.8 | 33.9 | 20.9
COC(=O)[C@]12CCC(C)(C)C[C@H]1C1=CC[C@@H]3[C@@]4(C)CC[C@H](O)C(C)(C)[C@@H]4CC[C@@]3(C)[C@]1(C)C[C@H]2OCc1ccccc1 | 5.8 | 4.6 | -3.9 | 1.6
COC(=O)[C@]12CCC(C)(C)C[C@H]1C1=CC[C@@H]3[C@@]4(C)CC[C@H](OC)C(C)(C)[C@@H]4CC[C@@]3(C)[C@]1(C)C[C@H]2O | – | -14 | 30.1 | 9.9
CC(=O)OC[C@H]1O[C@@H](n2cc(CNC(=O)[C@]34CCC(C)(C)C[C@H]3C3=CC[C@@H]5[C@@]6(C)CC[C@H](O)C(C)(C)[C@@H]6CC[C@@]5(C)[C@]3(C)C[C@H]4O)nn2)[C@H](OC(C)=O)[C@@H](OC(C)=O)[C@@H]1O[C@@H]1O[C@H](COC(C)=O)[C@@H](OC(C)=O)[C@H](OC(C)=O)[C@H]1OC(C)=O | 64.8 | 11.9 | 38.8 | 36.8
COC(=O)[C@@]12C=C[C@]3(C)C(=CC[C@@H]4[C@@]5(C)CC[C@H](O)C(C)(C)[C@@H]5CC[C@]43C)[C@@H]1CC(C)(C)CC2 | 27.9 | 12.3 | 18.8 | 15.2
CC1(C)CC[C@]2(C(=O)O[C@@H]3O[C@H](CO)[C@@H](O)[C@H](O)[C@H]3O)[C@H](O)C[C@]3(C)C(=CC[C@@H]4[C@@]5(C)CC[C@H](O)C(C)(C)[C@@H]5CC[C@]43C)[C@@H]2C1 | 67.5 | 30.6 | 5.6 | 12.9
CC(=O)OC[C@H]1O[C@@H](n2cc(CNC(=O)[C@]34CCC(C)(C)C[C@H]3C3=CC[C@@H]5[C@@]6(C)CC[C@H](O)C(C)(C)[C@@H]6CC[C@@]5(C)[C@]3(C)C[C@H]4O)nn2)[C@H](OC(C)=O)[C@@H](OC(C)=O)[C@@H]1O[C@H]1O[C@H](COC(C)=O)[C@@H](OC(C)=O)[C@H](OC(C)=O)[C@H]1OC(C)=O | 79.7 | 56.4 | 28.9 | 13.2
CC1(C)CC[C@]2(C(=O)NCc3cn([C@@H]4O[C@H](CO)[C@@H](O)[C@H](O)[C@@H]4O)nn3)[C@H](O)C[C@]3(C)C(=CC[C@@H]4[C@@]5(C)CC[C@H](O)C(C)(C)[C@@H]5CC[C@]43C)[C@@H]2C1 | 25 | 17.5 | 19.5 | 17.9
CC(=O)OC[C@H]1O[C@@H](n2cc(CNC(=O)[C@]34CCC(C)(C)C[C@H]3C3=CC[C@@H]5[C@@]6(C)CC[C@H](O)C(C)(C)[C@@H]6CC[C@@]5(C)[C@]3(C)C[C@H]4O)nn2)[C@@H](OC(C)=O)[C@@H](OC(C)=O)[C@@H]1OC(C)=O | 81.5 | 21.8 | 14.7 | -5.3
CC1(C)CC[C@]2(C(=O)NCCCNC(=O)[C@]34CCC(C)(C)C[C@H]3C3=CC[C@@H]5[C@@]6(C)CC[C@H](O)C(C)(C)[C@@H]6CC[C@@]5(C)[C@]3(C)C[C@H]4O)[C@H](O)C[C@]3(C)C(=CC[C@@H]4[C@@]5(C)CC[C@H](O)C(C)(C)[C@@H]5CC[C@]43C)[C@@H]2C1 | 58.2 | 44.6 | 27.6 | 18.7
CC1(C)CC[C@]2(C(=O)O)[C@H](O)C[C@]3(C)C(=CC[C@@H]4[C@@]5(C)CCC(N)C(C)(C)[C@@H]5CC[C@]43C)[C@@H]2C1 (stereo partly drawn) | 10.5 | 12.1 | 28.4 | 23.6
CC(=O)OC[C@H]1O[C@H](O[C@H]2[C@H](OC(C)=O)[C@@H](OC(C)=O)[C@H](OC(=O)[C@]34CCC(C)(C)C[C@H]3C3=CC[C@@H]5[C@@]6(C)CC[C@H](O)C(C)(C)[C@@H]6CC[C@@]5(C)[C@]3(C)C[C@H]4O)O[C@@H]2COC(C)=O)[C@H](OC(C)=O)[C@@H](OC(C)=O)[C@@H]1OC(C)=O | 50 | 36.5 | 23.4 | 20.9
COC(=O)[C@]12CCC(C)(C)C[C@H]1[C@H]1C(=O)C[C@@H]3[C@@]4(C)CC[C@H](O)C(C)(C)[C@@H]4CC[C@@]3(C)[C@]1(C)C[C@H]2O | -8.7 | 4.9 | 46.1 | 42.7
CC(=O)OC[C@H]1O[C@@H](n2cc(CNC(=O)[C@]34CCC(C)(C)C[C@H]3C3=CC[C@@H]5[C@@]6(C)CC[C@H](O)C(C)(C)[C@@H]6CC[C@@]5(C)[C@]3(C)C[C@H]4O)nn2)[C@H](OC(C)=O)[C@@H](OC(C)=O)[C@@H]1O[C@H]1O[C@H](COC(C)=O)[C@@H](O[C@H]2O[C@H](COC(C)=O)[C@@H](OC(C)=O)[C@H](OC(C)=O)[C@H]2OC(C)=O)[C@H](OC(C)=O)[C@H]1OC(C)=O | 62.9 | 45.4 | 14 | 17.7
CC1(C)CC[C@]2(C(=O)NCc3cn([C@@H]4OC[C@@H](O)[C@H](O)[C@H]4O)nn3)[C@H](O)C[C@]3(C)C(=CC[C@@H]4[C@@]5(C)CC[C@H](O)C(C)(C)[C@@H]5CC[C@]43C)[C@@H]2C1 | 27.8 | 14.8 | 27 | 34.4
CC1(C)CC[C@]2(C(=O)NCc3cn([C@@H]4OC[C@@H](O)[C@@H](O)[C@@H]4O)nn3)[C@H](O)C[C@]3(C)C(=CC[C@@H]4[C@@]5(C)CC[C@H](O)C(C)(C)[C@@H]5CC[C@]43C)[C@@H]2C1 | 32.2 | 18.7 | 25.1 | 8.4
CC1(C)CC[C@]2(C(=O)NCc3cn(CCNC(=O)CCCC[C@@H]4SC[C@@H]5NC(=O)N[C@@H]54)nn3)[C@H](O)C[C@]3(C)C(=CC[C@@H]4[C@@]5(C)CC[C@H](O)C(C)(C)[C@@H]5CC[C@]43C)[C@@H]2C1 | 76.7 | 34.2 | 12 | 10.3
CC(=O)OC[C@H]1O[C@@H](n2cc(CNC(=O)[C@]34CCC(C)(C)C[C@H]3C3=CC[C@@H]5[C@@]6(C)CC[C@H](O)C(C)(C)[C@@H]6CC[C@@]5(C)[C@]3(C)C[C@H]4O)nn2)[C@H](OC(C)=O)[C@@H](OC(C)=O)[C@H]1OC(C)=O | 66.5 | 20.4 | 30.6 | 24.3
COC(=O)[C@]12CCC(C)(C)C[C@H]1C1=CC[C@@H]3[C@@]4(C)CC[C@H](OC(C)=O)C(C)(C)[C@@H]4CC[C@@]3(C)[C@]1(C)C[C@H]2OC(C)=O | 20.1 | 13.5 | 24.2 | 15.8
C[C@H]1O[C@@H](n2cc(CNC(=O)[C@]34CCC(C)(C)C[C@H]3C3=CC[C@@H]5[C@@]6(C)CC[C@H](O)C(C)(C)[C@@H]6CC[C@@]5(C)[C@]3(C)C[C@H]4O)nn2)[C@@H](O)[C@@H](O)[C@@H]1O | 67 | 32 | 13.9 | 7.7
CC(=O)O[C@H]1[C@H](OC(C)=O)[C@H](OC(C)=O)CO[C@H]1n1cc(CNC(=O)[C@]23CCC(C)(C)C[C@H]2C2=CC[C@@H]4[C@@]5(C)CC[C@H](O)C(C)(C)[C@@H]5CC[C@@]4(C)[C@]2(C)C[C@H]3O)nn1 | 72.6 | 26.3 | 20.9 | -6.6
COC(=O)[C@]12CCC(C)(C)C[C@H]1C1=CC[C@@H]3[C@@]4(C)CC[C@H](OCc5ccccc5)C(C)(C)[C@@H]4CC[C@@]3(C)[C@]1(C)C[C@H]2O | 5.2 | 10.5 | 25 | 12.6
